Our source for the toxin production and bacterial growth values is patent US7208303B2, “Bacterial nitric oxide synthases and uses thereof” (Cornell Research Foundation, Inc., priority 2003, dated 2007).

Test [1] concerns thaxtomin A production by S. turgidiscabies. As to the kind of experiment: Thaxtomin A production by S. turgidiscabies cultures in presence of NOS inhibitors (HPLC). Type of test: cell-based, Streptomyces turgidiscabies. Conditions: FIG. 4C, n=6. On the procedure:
(§1) Sonicated cell lysates from 3 mL cultures were run on 12% SDS-PAGE gels after 2.5 hr induction with 0.1 mM IPTG. […] The NOS intermediate N^ω-hydroxy-L-arginine (2 mM) and hydrogen peroxide (4 mM) were reacted with 20 μL of cell lysates shown in FIG. 4A and assayed for nitrite with the Griess reagents after 15 min.
(§2) Streptomyces turgidiscabies cultures were grown in oat bran broth or oat meal broth (Healy et al., Mol. Micro. 38:794–804 (2000); and Goyer et al., Phytopathology 88:442–445 (1998), which are hereby incorporated by reference in their entirety) inoculated with spores. After shaking at 150 rpm and 25° C. for 5–9 days the cultures were filtered and dry weight of the mycelia was measured. Thaxtomin was extracted from the filtrate with ethyl acetate, dried, redissolved in methanol, and quantified using HPLC (column: 5 μm C18; 250×4.6 mm; mobile phase: MeCN: H20:TFA (40:60:0.1)). In experiments investigating the suppression of thaxtomin production in the presence of L-NAME, this NOS inhibitor was dissolved in water, filter-sterilized, and added at the time of inoculation.
For stNOS to be responsible for thaxtomin nitration, stNOS should have NO synthase activity. Further, this activity and thaxtomin production should be arginine dependent. As predicted, overexpressed stNOS in E. coli produced nitrite from N-hydroxy-L-arginine in a standard NOS assay (FIGS. 4A–4B). N-hydroxy-L-arginine is an intermediate unique to the NOS catalytic reaction and nitrite represents the end product of NO reacting in oxygenated solution. NO synthase activity of the recombinant stNOS was inhibited by the selective NOS inhibitor nitro-L-arginine (FIG. 4B); nitro-L-arginine is the active form of Nitro-L-arginine methyl ester (NAME). NOS inhibitors were also evaluated for their effect on thaxtomin A production by S. turgidiscabies. […]

A further test has as its system S. turgidiscabies. Put plainly: Bacterial growth of S. turgidiscabies cultures (dry weight of mycelia). Type of test: cell-based, Streptomyces turgidiscabies. Conditions: FIG. 4C. As for the experimental part:
as §1, §2

Structures are written as SMILES.

In the case of `O=[N+]([O-])c1cccc2cn[nH]c12` [7-IN, 7-nitroindazole], in test [1] (1.2 μM), the toxin production result is listed as “inhibit toxin product”. In addition, the bacterial growth entry with S. turgidiscabies (1.2 μM) is reported as “without affecting bacterial growth”.

With `N=C(N)NN` [AG, aminoguanidine], in test [1] (270 μM), the toxin production entry is “inhibit toxin product”. The bacterial growth entry with S. turgidiscabies (270 μM) is “without affecting bacterial growth”.

`CNC(=N)NCCC[C@H](N)C(=O)O` [NMMA, NG-monomethyl-L-arginine]: in test [1] (510 μM), the toxin production entry is “inhibit toxin product”. Besides, the bacterial growth entry with S. turgidiscabies (510 μM) is listed as “without affecting bacterial growth”.
